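Cells were grown in 96-well plates and exposed to each compound for 48 hours at five concentrations; endpoints were interpolated linearly between bracketing concentrations, or set to the highest concentration if not reached. The concentration for 50% growth inhibition is given as GI50.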 The source made the active and inactive calls. No stated cut-off is given here; in the data, active = GI50 up to about 1.1 µM and inactive = higher.

Test systems include DU-145; COLO 205; BT-549; SK-MEL-28; HCT-15; TK-10; SW-620; MCF7; SF-539; SR; NCI-H522; NCI/ADR-RES; HOP-62; MDA-MB-231.
Experiment in all cases: growth of human tumour cells (NCI), 48 h

Consider `Cc1cc(NS(=O)(=O)c2ccc(Nc3c4ccccc4nc4ccc(C(=O)Nc5ccc(S(N)(=O)=O)cc5)cc34)cc2)no1`, for which the GI50 in the test on DU-145 is > 100 µM (inactive); in the test with COLO 205, > 100 µM (inactive); in the test on BT-549, > 100 µM (inactive); in the test with SK-MEL-28, > 100 µM (inactive); in the test with HCT-15, > 100 µM; with TK-10, > 100 µM (inactive). The GI50 with SW-620, with MCF7, in the test on SF-539, with SR, with NCI-H522 and with NCI/ADR-RES was > 100 µM (inactive) throughout. In addition, the GI50 in the test with HOP-62 and in the test with MDA-MB-231 was > 100 µM (inactive) throughout.

As for `CC(=O)NNc1nc(C)c(C(/C=C/c2ccc([N+](=O)[O-])cc2)=N/NC(N)=O)s1`, the GI50 in the test with DU-145 was > 100 µM (inactive); in the test on COLO 205 it was > 100 µM (inactive); in the test with BT-549, > 100 µM (inactive); with SK-MEL-28, > 100 µM (inactive); in the test on HCT-15, > 100 µM; in the test with TK-10, > 100 µM (inactive). For the same molecule, the GI50 in the test with SW-620, in the test with MCF7, in the test on SF-539, with SR, in the test with NCI-H522 and with NCI/ADR-RES was > 100 µM (inactive) each time. Further, the GI50 in the test with HOP-62 and in the test on MDA-MB-231 was > 100 µM (inactive) in each case.

As for `CC(C)=CCc1c2c(c(O)c3c(=O)c4c(oc13)-c1ccc(O)cc1OC4C=C(C)C)C=CC(C)(C)O2` (stereo unspecified), the GI50 in the test on DU-145 was 14 µM (inactive); with COLO 205, 21 µM (inactive); in the test on BT-549 it was 13.9 µM (inactive); in the test on SK-MEL-28, 14.6 µM (inactive); in the test on HCT-15, 7.5 µM; with TK-10, 14.8 µM (inactive). In addition, the GI50 with SW-620 is 8.32 µM (inactive); in the test with MCF7, 13.5 µM (inactive); in the test on SF-539 it was 17.2 µM (inactive); with SR, 5.33 µM (inactive); in the test with NCI-H522, 12.4 µM (inactive); with NCI/ADR-RES, 16.9 µM (inactive). The GI50 with HOP-62 and with MDA-MB-231 was 14.2 µM (inactive) each time.

Regarding `COc1cc(/C=C2\C[C@H]3[C@@H]4CC=C5C[C@@H](OC(C)=O)CC[C@]5(C)[C@H]4CC[C@]3(C)\C2=N\O)cc(OC)c1OC`, the GI50 in the test with DU-145 is 4.42 µM (inactive); in the test with COLO 205 it was 3.76 µM (inactive); in the test on BT-549, 5.01 µM (inactive); with SK-MEL-28, 5.58 µM (inactive); in the test with HCT-15, 4.42 µM; in the test on TK-10, 13.7 µM (inactive). In addition, the GI50 in the test with SW-620 was 7 µM (inactive); with MCF7, 4.2 µM (inactive); with SF-539 it was 4.33 µM (inactive); in the test on SR, 3.58 µM (inactive); in the test on NCI-H522, 4.85 µM (inactive); in the test with NCI/ADR-RES, 3.78 µM (inactive). For the same molecule, the GI50 with HOP-62 is 13.1 µM (inactive); in the test with MDA-MB-231, 15.1 µM (inactive).

On to `Cc1ccc([S+]([O-])c2sccc2C=O)cc1` (stereo unspecified), for which the GI50 in the test on DU-145 was 54.3 µM (inactive); in the test on COLO 205 it was 41 µM (inactive); in the test on BT-549, 25 µM (inactive); in the test with SK-MEL-28, 29.2 µM (inactive); in the test on HCT-15, 27.7 µM; in the test on TK-10 it was > 100 µM (inactive). The GI50 was 24.2 µM (inactive) in the test with SW-620; 21.4 µM (inactive) in the test with MCF7; 21 µM (inactive) with SF-539; 31.8 µM (inactive) in the test with SR; 41.1 µM (inactive) in the test with NCI-H522; 26.5 µM (inactive) in the test with NCI/ADR-RES. The GI50 was 31.3 µM (inactive) in the test on HOP-62 and 26.4 µM (inactive) in the test with MDA-MB-231.

On to `CCCCCOc1ccc(NC2=C(Cl)C(=O)c3c(O)ccc(O)c3C2=O)cc1`, for which the GI50 in the test with DU-145 is > 10 µM (inactive); in the test on COLO 205, 2.63 µM (inactive); in the test with BT-549, 4.42 µM (inactive); with SK-MEL-28 it was 2.84 µM (inactive); in the test on HCT-15, 2.02 µM; in the test with TK-10 it was 5.97 µM (inactive). Moreover, the GI50 in the test on SW-620 is 3.87 µM (inactive); with MCF7, 1.33 µM (inactive); with SF-539, 6.52 µM (inactive); in the test on SR, 2.36 µM (inactive); in the test on NCI-H522 it was 2.55 µM (inactive); in the test with NCI/ADR-RES, 6.04 µM (inactive). Moreover, the GI50 with HOP-62 was 5.85 µM (inactive); with MDA-MB-231, 3.35 µM (inactive).

Take `O=C(/C=C/c1ccc(-c2ccccc2)cc1)NCc1ccc(C(=O)NCCc2c[nH]c3ccccc23)cc1`: the GI50 is > 100 µM (inactive) with DU-145; > 100 µM (inactive) in the test on COLO 205; 37.2 µM (inactive) in the test on BT-549; 39.7 µM (inactive) in the test with SK-MEL-28; > 100 µM with HCT-15; 26.2 µM (inactive) in the test with TK-10. The GI50 in the test with SW-620 is 34 µM (inactive); in the test with MCF7, 89.9 µM (inactive); in the test with SF-539, 43.5 µM (inactive); in the test on SR, 21 µM (inactive); in the test on NCI-H522, 21.3 µM (inactive); in the test with NCI/ADR-RES, 60 µM (inactive). Further, the GI50 was 9.14 µM (inactive) with HOP-62 and 14.6 µM (inactive) with MDA-MB-231.

As for `COc1cc(OCCN(C)C)c2[nH]c(C(=O)N3CC(CCl)c4ccc(N)cc43)cc2c1` (stereo unspecified), the GI50 in the test with DU-145 was 0.0142 µM (active); in the test with COLO 205, 0.0395 µM (active); in the test on BT-549, 0.351 µM (active); in the test on SK-MEL-28, 0.0628 µM (active); in the test with HCT-15, 0.0418 µM; in the test with TK-10 it was 0.0973 µM (active). Further, the GI50 with SW-620 is 0.0441 µM (active); with MCF7, 0.0139 µM (active); in the test on SF-539, 0.0748 µM (active); with SR, < 0.01 µM (active); in the test on NCI-H522, 0.0139 µM (active); in the test with NCI/ADR-RES, 0.0376 µM (active). The figures for the GI50 in the test with HOP-62 and in the test on MDA-MB-231 were 0.0164 µM (active) and 0.0912 µM (active), respectively.

Regarding `CO/C(=C/C(=O)C(Cl)(Cl)Cl)CC/C(=C\C(=O)C(Cl)(Cl)Cl)OC`, the GI50 in the test on DU-145 is 25.1 µM (inactive); with COLO 205, 40.7 µM (inactive); in the test on BT-549, 27.9 µM (inactive); with SK-MEL-28 it was 30.1 µM (inactive); with HCT-15, 22.5 µM; in the test with TK-10, 30.8 µM (inactive). The GI50 in the test on SW-620 is 53 µM (inactive); with MCF7, 24.2 µM (inactive); in the test on SF-539, 23.6 µM (inactive); in the test with SR, 18.6 µM (inactive); with NCI-H522, 20.1 µM (inactive); in the test on NCI/ADR-RES, 29.5 µM (inactive). Besides, the results for the GI50 in the test with HOP-62 and in the test on MDA-MB-231 were 20.8 µM (inactive) and 42.2 µM (inactive), respectively.

As for `CC1(C)C=Cc2c(cc3oc4ccc5c(c4c(=O)c3c2O)C=CC(C)(C)O5)O1`, the GI50 in the test with DU-145 is > 100 µM (inactive); in the test on COLO 205, > 100 µM (inactive); in the test on BT-549, > 100 µM (inactive); with SK-MEL-28, > 100 µM (inactive); in the test with HCT-15, > 100 µM; in the test on TK-10, > 100 µM (inactive). Further, the GI50 with SW-620 is > 100 µM (inactive); with MCF7 it was > 100 µM (inactive); in the test on SF-539 it was > 100 µM (inactive); with SR, 75.3 µM (inactive); in the test on NCI-H522, > 100 µM (inactive); in the test on NCI/ADR-RES, > 100 µM (inactive). Further, the GI50 in the test on HOP-62 and with MDA-MB-231 was > 100 µM (inactive) each time.

`C=C(C[C@@H](O)[C@H](C)NC(=O)OCc1ccccc1)C(=O)OC(C)(C)C`: the GI50 was 45.7 µM (inactive) in the test with DU-145; > 100 µM (inactive) in the test with COLO 205; 95.9 µM (inactive) with BT-549; > 100 µM (inactive) in the test with SK-MEL-28; > 100 µM in the test with HCT-15; > 100 µM (inactive) in the test with TK-10. Also, the GI50 with SW-620 was 39.7 µM (inactive); with MCF7 it was 61.7 µM (inactive); in the test with SF-539, 50 µM (inactive); with SR, 29.6 µM (inactive); in the test on NCI-H522, 38.6 µM (inactive); with NCI/ADR-RES it was 66.2 µM (inactive). Besides, the GI50 in the test on HOP-62 and in the test on MDA-MB-231 was > 100 µM (inactive) throughout.

For `COc1c2c(nc3ccccc13)-c1cc(C(CC(=O)OC(C)(C)C)C(=O)OC(C)C)c(CO)c(=O)n1C2` (stereo unspecified), the GI50 in the test with DU-145 was 22.2 µM (inactive); with COLO 205, 88.5 µM (inactive); in the test on BT-549 it was > 66.4 µM (inactive); in the test on SK-MEL-28, > 73.8 µM (inactive); with HCT-15, > 78.2 µM; in the test with TK-10, > 100 µM (inactive). In addition, the GI50 in the test on SW-620 was > 96.6 µM (inactive); in the test on MCF7, 6.85 µM (inactive); with SF-539, 36.9 µM (inactive); in the test on SR, 5.62 µM (inactive); in the test with NCI-H522, 37.6 µM (inactive); in the test on NCI/ADR-RES, 24.5 µM (inactive). Moreover, the GI50 in the test on HOP-62 is 24.9 µM (inactive); with MDA-MB-231, > 100 µM (inactive).

For `Nc1nc(Cl)c(N)c(NC23CC4CC(CC(C4)C2)C3)n1`, the GI50 is 2.22 µM (inactive) in the test on DU-145; 1.58 µM (inactive) with COLO 205; 2.25 µM (inactive) in the test with BT-549; 1.84 µM (inactive) with SK-MEL-28; 1.73 µM with HCT-15; 2.38 µM (inactive) in the test on TK-10. The GI50 with SW-620 is 1.51 µM (inactive); with MCF7 it was 1.68 µM (inactive); in the test with SF-539 it was 2.16 µM (inactive); with SR, 2.56 µM (inactive); with NCI-H522, 1.92 µM (inactive); with NCI/ADR-RES it was 2.43 µM (inactive). Moreover, the GI50 is 1.87 µM (inactive) with HOP-62 and 1.79 µM (inactive) in the test with MDA-MB-231.

As for `CC(=O)C1(Cc2cccc3ccccc23)S(=O)(=O)OCCOS1(=O)=O`, the GI50 in the test on DU-145 was 18.4 µM (inactive); with COLO 205 it was 17 µM (inactive); with BT-549, 16.9 µM (inactive); in the test on SK-MEL-28 it was 19.3 µM (inactive); in the test with HCT-15, 19.2 µM; with TK-10, 17.3 µM (inactive). Besides, the GI50 is 18.3 µM (inactive) with SW-620; 20.8 µM (inactive) with MCF7; 17.9 µM (inactive) with SF-539; 18.3 µM (inactive) in the test with SR; 21.6 µM (inactive) with NCI-H522; 21.8 µM (inactive) with NCI/ADR-RES. For the same molecule, the results for the GI50 in the test with HOP-62 and in the test on MDA-MB-231 were 20.9 µM (inactive) and 15.8 µM (inactive), respectively.

Values taken from ChEMBL document CHEMBL1201862, “PubChem BioAssay data set” (2004).
